Where two headings read alike, the source gives them in different places.
System: genetisch hypertonen Ratten
Assay: Antihypertensive effect in the spontaneously hypertensive rat, systolic blood pressure by tail cuff after oral dosing
Format: in vivo, Ratte
Details: male SHR/N/Ibm/Bm rats, N=6, mean of day 1 and 2; for change in vivo at 25 µmol/kg / change in vivo at 10 µmol/kg: Rattus norvegicus, po; for change in vivo at 25 µmol/kg / BP (% Änderung vs. Kontrolle), Mittelwert für Meßzeitpunkte: Stunden nach Gabe (1. und 2. Tag) 2h / BP (% Änderung vs. Kontrolle), Mittelwert für Meßzeitpunkte: Stunden nach Gabe (1. und 2. Tag) 6h: 25 µmol/kg p.o. once daily on two consecutive days; for change in vivo at 10 µmol/kg: 10 µmol/kg p.o. once daily on two consecutive days
Excerpt: Die antihypertensive Wirksamkeit der erfindungsgemäßen Verbindungen kann am Modell der spontan hypertonen Ratte nachgewiesen werden.
Zur Bestimmung der antihypertensiven Wirkung werden die unten aufgeführten Verbindungen in den angegebenen Dosen an zwei aufeinander folgenden Tagen an je 6 männlichen Ratten (Stamm SHR/N/Ibm/Bm, 250-350 g) mit genetisch bedingtem Hochdruck (systolischer Blutdruck > 180 mmHg) täglich einmal mittels Schlundsonde verabfolgt. Die Messung des Blutdrucks erfolgt jeweils 2, 6 und 24 Stunden nach Substanzgabe.
Die Blutdruckmessung wird in einer Wärmekammer bei 36°C vorgenommen, um eine bessere Durchblutung der Schwanzarterie zu erreichen. Hierzu werden die Tiere in perforierte Lochblechkäfige verbracht und 20 - 40 Min. nach Beginn der Aufwärmung gemessen. Zur Messung des systolischen arteriellen Drucks wird eine ringförmige Manschette mit aufblasbarer Gummimembran zur Unterbindung der Durchblutung und ein ringförmiger Piezokristallaufnehmer zur Erfassung der Pulswellen auf den Schwanz aufgeschoben. Nach erfolgter Unterbindung des Blutstroms in der Schwanzarterie wird der Manschettendruck kontinuierlich reduziert. Die Wiederkehr der Pulswellen bei Druckablassen wird automatisch als systolischer Blutdruck erkannt und ausgedruckt (Bühler, R. et al.: Microprocessor-based automation of blood pressure measurement in the conscious rat. Proceedings of the 4th international symposium on rats with spontaneous hypertension and related studies, Rascher, R. et al. (Eds.), Schattauer Verlag, Stuttgart, New York, 1982, S. 410-413). Pulssignale und Druckverlauf werden zur Auswertung graphisch aufgezeichnet.
Zur Gewöhnung an den Meßvorgang werden die Tiere vor Substanzprüfung 14 Tage trainiert. In der zweiten Trainingswoche werden Blutdruck-Vorwerte erhoben. Tiergruppen, die Substanz erhalten, werden gegen eine Kontrollgruppe geprüft. In der anschließenden Tabelle werden die untersuchten Verbindungen durch laufende Nummern gekennzeichnet, die mit den jeweiligen Beispielnummern übereinstimmen. Bei getrennten Diastereomeren ist der Drehwert des untersuchten Diastereomers angegeben.
Tabelle I gibt für die Vertreter der erfindungsgemäßen Verbindungen die prozentuale Senkung des Blutdrucks (BP) nach oraler Verabreichung bei der Ratte wieder.
%-Änderungen (BP) an genetisch hypertonen Ratten nach täglich einmaliger p.o.-Applikation an zwei aufeinanderfolgenden Tagen (N=6/Dosis).

[1] = 2 h, 2h after dosing, read-out: BP (% Änderung vs. Kontrolle), Mittelwert für Meßzeitpunkte: Stunden nach Gabe (1. und 2. Tag) 2h
[2] = 6 h, 6h after dosing, read-out: BP (% Änderung vs. Kontrolle), Mittelwert für Meßzeitpunkte: Stunden nach Gabe (1. und 2. Tag) 6h
[3] = 24 h, 24h after dosing, read-out: BP (% Änderung vs. Kontrolle), Mittelwert für Meßzeitpunkte: Stunden nach Gabe (1. und 2. Tag) 24h

Row | SMILES | change in vivo at 25 µmol/kg [1] [%] | change in vivo at 25 µmol/kg [2] [%] | change in vivo at 25 µmol/kg [3] [%] | also measured
1 | CN[C@H](C)[C@@H](OC(=O)C1=C(C)NC(C)=C(C(=O)OC)C1c1cccc([N+](=O)[O-])c1)c1ccccc1 (single isomer, unassigned) [7 (-88°)] | -56 | -46 | -11.5 | 
2 | CN[C@@H](C)[C@H](OC(=O)C1=C(C)NC(C)=C(C(=O)OC)C1c1cccc([N+](=O)[O-])c1)c1ccccc1 (single isomer, unassigned) [8 (+202,6°)] | -55 | -43 | -10.5 | 
3 | CN[C@@H](C)[C@@H](OC(=O)C1=C(C)NC(C)=C(C(=O)OC)C1c1cccc([N+](=O)[O-])c1)c1ccccc1 (single isomer, unassigned) [9 (-66,3°)] | -55 | -49.5 |  | 
4 | CN[C@H](C)[C@H](OC(=O)C1=C(C)NC(C)=C(C(=O)OC)C1c1cccc([N+](=O)[O-])c1)c1ccccc1 (single isomer, unassigned) [10 (+165,5°)] | -52 | -39.5 |  | 
5 | COC(=O)C1=C(C)NC(C)=C(C(=O)O[C@H](c2ccccc2)[C@H](C)N)C1c1cccc([N+](=O)[O-])c1 (single isomer, unassigned) [16 (+216,4°)] | -59 | -56.5 | -21.5 | 
6 | COC(=O)C1=C(C)NC(C)=C(C(=O)O[C@@H](c2ccccc2)[C@@H](C)N)C1c1cccc([N+](=O)[O-])c1 (single isomer, unassigned) [17 (-104,3°)] | -56 | -47 | -14.5 | 
7 | CCOC(=O)C1=C(C)NC(C)=C(C(=O)O[C@H](c2ccccc2)[C@H](C)N(C)C)C1c1cccc([N+](=O)[O-])c1 (single isomer, unassigned) [Beispiel 1a] |  |  |  | BP (% Änderung vs. Kontrolle), Mittelwert für Meßzeitpunkte: Stunden nach Gabe (1. und 2. Tag) 2h (2h after dosing): -47,5%; BP (% Änderung vs. Kontrolle), Mittelwert für Meßzeitpunkte: Stunden nach Gabe (1. und 2. Tag) 6h (6h after dosing): -44,5%
8 | CCOC(=O)C1=C(C)NC(C)=C(C(=O)O[C@H](c2ccccc2)[C@H](C)N(C)C)C1c1cccc([N+](=O)[O-])c1 (single isomer, unassigned) [Beispiel 1b] |  |  |  | BP (% Änderung vs. Kontrolle), Mittelwert für Meßzeitpunkte: Stunden nach Gabe (1. und 2. Tag) 2h (2h after dosing): -40,0%; BP (% Änderung vs. Kontrolle), Mittelwert für Meßzeitpunkte: Stunden nach Gabe (1. und 2. Tag) 6h (6h after dosing): -30,3%
9 | CCOC(=O)C1=C(C)NC(C)=C(C(=O)O[C@@H](c2ccccc2)[C@@H](C)N(C)C)C1c1cccc([N+](=O)[O-])c1 (single isomer, unassigned) [Beispiel 2b] | -40 | -34.3 |  | 
10 | COC(=O)C1=C(C)NC(C)=C(C(=O)O[C@H](c2ccccc2)[C@H](C)N(C)Cc2ccccc2)C1c1cccc([N+](=O)[O-])c1 (single isomer, unassigned) [Beispiel 11] | -53.5 | -48 |  | 
11 | CCN(C)[C@@H](C)[C@H](OC(=O)C1=C(C)NC(C)=C(C(=O)OC)C1c1cccc([N+](=O)[O-])c1)c1ccccc1 (single isomer, unassigned) [Beispiel 12] | -48.5 | -38 |  | 
12 | COC(=O)C1=C(C)NC(C)=C(C(=O)O[C@H](c2ccccc2)[C@H](C)N(C)CC=Cc2ccccc2)C1c1cccc([N+](=O)[O-])c1 (single isomer, unassigned) [Beispiel 14] | -51.5 | -41.5 |  | 
13 | COC(=O)C1=C(C)NC(C)=C(C(=O)O[C@H](c2ccccc2)[C@@H](C)N(C)Cc2cc(OC)c(OC)c(OC)c2)C1c1cccc([N+](=O)[O-])c1 (single isomer, unassigned) [Beispiel 15] | -62.5 | -56 | -37 | 
14 | COC(=O)C1=C(C)NC(C)=C(C(=O)O[C@H](c2ccccc2)[C@H](C)N(C)Cc2cc([N+](=O)[O-])ccc2OC)C1c1cccc([N+](=O)[O-])c1 (single isomer, unassigned) [Beispiel 19] |  |  |  | change in vivo at 10 µmol/kg [1]: -42%; change in vivo at 10 µmol/kg [2]: -23.5%; change in vivo at 10 µmol/kg [3]: -10.5%

Source: EP0336132A1, “1-Phenylpropyl compounds” (Byk Gulden Lomberg Chemische Fabrik GmbH, priority 1988, dated 1989)
